Test results as given in paper PMC6472001, “Phenolic Compounds from Humulus lupulus as Natural Antimicrobial Products: New Weapons in the Fight against Methicillin Resistant Staphylococcus aureus, Leishmania mexicana and Trypanosoma brucei Strains” (Molecules, 2019).

Columns and labels:
Format in all cases: cell-based
Salmonella sp. 11033 = assay: First screening, agar dilution MIC
Description: (§1) Clinical bacterial isolates from human samples collected in Lille (France) and some collection strains were used. The first screening step on pathogenic bacteria was carried out with crude hydro-alcoholic extracts of different hop parts (Table 1). The second screening was performed using sub-extracts of cones on Gram-positive bacteria, including methicillin-sensitive Staphylococcus aureus (MSSA) and methicillin-resistant Staphylococcus aureus […] (Table 2). These tests were carried out on Petri dishes, Mueller-Hinton Agar (MHA) (Oxoid, UK) was mixed with the plant extract solution in MeOH at 5% (solvent control: 5% MeOH). Final extract concentrations in Petri dishes ranged from 1250 to 4.9 µg/mL. A multi-headed inoculator allowed spotting bacterial strains at 10^5 CFU/mL in cysteinated Ringer (CR) solution (Merck®, France). Minimal Inhibitory Concentrations (MICs) were visually determined after 24 h of incubation at 37 °C.

[1] = system: Enterococcus faecalis C159-6; assay: First screening, agar dilution MIC
Description: as §1

[2] = system: Staphylococcus epidermidis 5001; assay: First screening, agar dilution MIC
Description: as §1

[3] = system: Enterobacter cloacae 11050; assay: First screening, agar dilution MIC
Description: as §1

[4] = system: Staphylococcus aureus 8147; assay: First screening, agar dilution MIC
Description: as §1

[5] = system: Mycobacterium smegmatis 5003; assay: First screening, agar dilution MIC
Description: as §1

[6] = system: Serratia marcescens 11056; assay: First screening, agar dilution MIC
Description: as §1

[7] = system: Providencia stuartii 11038; assay: First screening, agar dilution MIC
Description: as §1

[8] = system: Streptococcus dysgalactiae T46C14; assay: First screening, agar dilution MIC
Description: as §1

[9] = system: Enterobacter cloacae 11051; assay: First screening, agar dilution MIC
Description: as §1

[10] = system: Acinetobacter baumannii 9010; assay: First screening, agar dilution MIC
Description: as §1

[11] = system: Staphylococcus warneri T12A12; assay: First screening, agar dilution MIC
Description: as §1

Corynebacterium T25-17 [12] = assay: First screening, agar dilution MIC
Description: as §1

Proteus mirabilis 11060 = assay: First screening, agar dilution MIC
Description: as §1

[13] = system: Serratia marcescens 11057; assay: First screening, agar dilution MIC
Description: as §1

[14] = system: Stenotrophomonas maltophilia; assay: First screening, agar dilution MIC
Description: as §1

[15] = system: Acinetobacter baumannii 9011; assay: First screening, agar dilution MIC
Description: as §1

[16] = system: Pseudomonas aeruginosa 8131; assay: First screening, agar dilution MIC
Description: as §1

[17] = system: Pseudomonas aeruginosa ATCC 27583; assay: First screening, agar dilution MIC
Description: as §1

[18] = system: Citrobacter freundii 11042; assay: First screening, agar dilution MIC
Description: as §1

[19] = system: Enterobacter cloacae 11053; assay: First screening, agar dilution MIC
Description: as §1

Escherichia coli 8138 = assay: First screening, agar dilution MIC
Description: as §1

[20] = system: Staphylococcus aureus 8146; assay: First screening, agar dilution MIC
Description: as §1

[21] = system: Klebsiella pneumoniae 11016; assay: First screening, agar dilution MIC
Description: as §1

[22] = system: Staphylococcus lugdunensis T26A3; assay: First screening, agar dilution MIC
Description: as §1

[23] = system: Citrobacter freundii 11041; assay: First screening, agar dilution MIC
Description: as §1

[24] = system: Streptococcus agalactiae T53C2; assay: First screening, agar dilution MIC
Description: as §1

[25] = system: Staphylococcus epidermidis 10282; assay: First screening, agar dilution MIC
Description: as §1

[26] = system: Klebsiella pneumoniae 11017; assay: First screening, agar dilution MIC
Description: as §1

Escherichia coli 8157 = assay: First screening, agar dilution MIC
Description: as §1

[27] = system: Escherichia coli ATCC 25922; assay: First screening, agar dilution MIC
Description: as §1

Enterococcus sp. 8153 = assay: First screening, agar dilution MIC
Description: as §1

[28] = system: Streptococcus agalactiae T25-7; assay: First screening, agar dilution MIC
Description: as §1

[29] = system: Staphylococcus aureus CIP 224; assay: Second screening, agar dilution MIC
Description: as §1

[30] = system: Staphylococcus saprophyticus 08237; assay: Second screening, agar dilution MIC
Description: as §1

[31] = system: Staphylococcus epidermidis 5001; assay: Second screening, agar dilution MIC; conditions: Table 2
Description: as §1

[32] = system: Staphylococcus aureus 8147; assay: Second screening, agar dilution MIC; conditions: Table 2
Description: as §1

[33] = system: Staphylococcus pettenkoferi T3.3; assay: Second screening, agar dilution MIC
Description: as §1

[34] = system: Staphylococcus aureus T26A4; assay: Second screening, agar dilution MIC
Description: as §1

[35] = system: Staphylococcus aureus T25.3; assay: Second screening, agar dilution MIC
Description: as §1

[36] = system: Streptococcus agalactiae T40A2; assay: Second screening, agar dilution MIC
Description: as §1

Corynebacterium T25-17 [37] = assay: Second screening, agar dilution MIC; conditions: Table 2
Description: as §1

[38] = system: Staphylococcus aureus T1.1; assay: Second screening, agar dilution MIC
Description: as §1

[39] = system: Staphylococcus aureus T36B1; assay: Second screening, agar dilution MIC
Description: as §1

[40] = system: Staphylococcus aureus T47A12; assay: Second screening, agar dilution MIC
Description: as §1

[41] = system: Staphylococcus aureus T25.9; assay: Second screening, agar dilution MIC
Description: as §1

[42] = system: Enterococcus faecalis T26-B7; assay: Second screening, agar dilution MIC
Description: as §1

[43] = system: Enterococcus faecalis T37A4; assay: Second screening, agar dilution MIC
Description: as §1

[44] = system: Streptococcus agalactiae 13225; assay: Second screening, agar dilution MIC
Description: as §1

[45] = system: Staphylococcus aureus T6.7; assay: Second screening, agar dilution MIC
Description: as §1

[46] = system: Staphylococcus aureus T25.10; assay: Second screening, agar dilution MIC
Description: as §1

[47] = system: Streptococcus agalactiae T25.7; assay: Second screening, agar dilution MIC
Description: as §1

[48] = system: Staphylococcus lugdunensis T26A3; assay: Second screening, agar dilution MIC; conditions: Table 2
Description: as §1

[49] = system: Enterococcus faecalis T39-C11; assay: Second screening, agar dilution MIC
Description: as §1

[50] = system: Staphylococcus aureus T28.1; assay: Second screening, agar dilution MIC
Description: as §1

[51] = system: Streptococcus agalactiae 13226; assay: Second screening, agar dilution MIC
Description: as §1

[52] = system: Streptococcus agalactiae T38.2; assay: Second screening, agar dilution MIC
Description: as §1

[53] = system: Enterococcus faecalis T34-2; assay: Second screening, agar dilution MIC
Description: as §1

SMILES: CNC(C)C1CCC(N)C(OC2C(N)CC(N)C(OC3OCC(C)(O)C(NC)C3O)C2O)O1 (stereo not shown) [GEN, Gentamicin]
- Susceptibility to GEN (Salmonella sp. 11033): S (Gentamicin (GEN) S ≤ 4)
- Susceptibility to GEN [1]: R (R > 8)
- Susceptibility to GEN [2]: S (Gentamicin (GEN) S ≤ 4)
- Susceptibility to GEN [3]: S (Gentamicin (GEN) S ≤ 4)
- Susceptibility to GEN [4]: S (Gentamicin (GEN) S ≤ 4)
- Susceptibility to GEN [5]: S (Gentamicin (GEN) S ≤ 4)
- Susceptibility to GEN [6]: S (Gentamicin (GEN) S ≤ 4)
- Susceptibility to GEN [7]: S (Gentamicin (GEN) S ≤ 4)
- Susceptibility to GEN [8]: S (Gentamicin (GEN) S ≤ 4)
- Susceptibility to GEN [9]: R (R > 8)
- Susceptibility to GEN [10]: S (Gentamicin (GEN) S ≤ 4)
- Susceptibility to GEN [11]: S (Gentamicin (GEN) S ≤ 4)
- Susceptibility to GEN (Corynebacterium T25-17 [12]): S (Gentamicin (GEN) S ≤ 4)
- Susceptibility to GEN (Proteus mirabilis 11060): S (Gentamicin (GEN) S ≤ 4)
- Susceptibility to GEN [13]: R (R > 8)
- Susceptibility to GEN [14]: S (Gentamicin (GEN) S ≤ 4)
- Susceptibility to GEN [15]: R (R > 8)
- Susceptibility to GEN [16]: S (Gentamicin (GEN) S ≤ 4)
- Susceptibility to GEN [17]: R (R > 8)
- Susceptibility to GEN [18]: S (Gentamicin (GEN) S ≤ 4)
- Susceptibility to GEN [19]: S (Gentamicin (GEN) S ≤ 4)
- Susceptibility to GEN (Escherichia coli 8138): S (Gentamicin (GEN) S ≤ 4)
- Susceptibility to GEN [20]: S (Gentamicin (GEN) S ≤ 4)
- Susceptibility to GEN [21]: S (Gentamicin (GEN) S ≤ 4)
- Susceptibility to GEN [22]: S (Gentamicin (GEN) S ≤ 4)
- Susceptibility to GEN [23]: S (Gentamicin (GEN) S ≤ 4)
- Susceptibility to GEN [24]: S (Gentamicin (GEN) S ≤ 4)
- Susceptibility to GEN [25]: S (Gentamicin (GEN) S ≤ 4)
- Susceptibility to GEN [26]: S (Gentamicin (GEN) S ≤ 4)
- Susceptibility to GEN (Escherichia coli 8157): S (Gentamicin (GEN) S ≤ 4)
- Susceptibility to GEN [27]: S (Gentamicin (GEN) S ≤ 4)
- Susceptibility to GEN (Enterococcus sp. 8153): R (R > 8)
- Susceptibility to GEN [28]: R (R > 8)
- Susceptibility to GEN [29]: S (Gentamicin (GEN) S ≤ 4)
- Susceptibility to GEN [30]: S (Gentamicin (GEN) S ≤ 4)
- Susceptibility to GEN [31]: S (Gentamicin (GEN) S ≤ 4)
- Susceptibility to GEN [32]: S (Gentamicin (GEN) S ≤ 4)
- Susceptibility to GEN [33]: S (Gentamicin (GEN) S ≤ 4)
- Susceptibility to GEN [34]: S (Gentamicin (GEN) S ≤ 4)
- Susceptibility to GEN [35]: S (Gentamicin (GEN) S ≤ 4)
- Susceptibility to GEN [36]: S (Gentamicin (GEN) S ≤ 4)
- Susceptibility to GEN (Corynebacterium T25-17 [37]): S (Gentamicin (GEN) S ≤ 4)
- Susceptibility to GEN [38]: S (Gentamicin (GEN) S ≤ 4)
- Susceptibility to GEN [39]: S (Gentamicin (GEN) S ≤ 4)
- Susceptibility to GEN [40]: S (Gentamicin (GEN) S ≤ 4)
- Susceptibility to GEN [41]: S (Gentamicin (GEN) S ≤ 4)
- Susceptibility to GEN [42]: R (R > 8)
- Susceptibility to GEN [43]: R (R > 8)
- Susceptibility to GEN [44]: S (Gentamicin (GEN) S ≤ 4)
- Susceptibility to GEN [45]: S (Gentamicin (GEN) S ≤ 4)
- Susceptibility to GEN [46]: S (Gentamicin (GEN) S ≤ 4)
- Susceptibility to GEN [47]: I
- Susceptibility to GEN [48]: S (Gentamicin (GEN) S ≤ 4)
- Susceptibility to GEN [49]: S (Gentamicin (GEN) S ≤ 4)
- Susceptibility to GEN [50]: S (Gentamicin (GEN) S ≤ 4)
- Susceptibility to GEN [51]: S (Gentamicin (GEN) S ≤ 4)
- Susceptibility to GEN [52]: S (Gentamicin (GEN) S ≤ 4)
- Susceptibility to GEN [53]: S (Gentamicin (GEN) S ≤ 4)
